One molecule from publication PMC5963010, “Characterization of a novel thermostable and xylose-tolerant GH 39 β-xylosidase from Dictyoglomus thermophilum” (BMC Biotechnology, 2018) can be followed below.

The target in this test is T1, Xln-DT (Dictyoglomus thermophilum, UniProt B5YB78).
T1 construct: gene DICTH_1792; full-length ORF, 502 aa (1509 bp), in pET-20b (BamHI/XhoI), E. coli BL21(DE3); tag not described
T1 sequence (B5YB78 1-502): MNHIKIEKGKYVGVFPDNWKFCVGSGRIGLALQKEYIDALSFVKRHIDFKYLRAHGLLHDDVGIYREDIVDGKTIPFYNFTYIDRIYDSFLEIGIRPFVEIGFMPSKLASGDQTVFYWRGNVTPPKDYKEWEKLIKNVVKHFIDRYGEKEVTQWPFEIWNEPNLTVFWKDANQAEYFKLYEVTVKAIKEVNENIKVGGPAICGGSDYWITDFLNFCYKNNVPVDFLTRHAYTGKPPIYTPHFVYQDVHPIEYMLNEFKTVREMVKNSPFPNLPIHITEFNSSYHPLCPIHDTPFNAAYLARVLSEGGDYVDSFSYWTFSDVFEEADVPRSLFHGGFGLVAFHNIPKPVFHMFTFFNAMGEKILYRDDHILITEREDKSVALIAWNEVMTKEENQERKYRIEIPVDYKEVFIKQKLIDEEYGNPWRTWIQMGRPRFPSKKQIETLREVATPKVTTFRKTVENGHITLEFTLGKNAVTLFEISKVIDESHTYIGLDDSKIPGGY
The experiment in a line: pNPX hydrolysis assay with added xylose. It is filed as biochemical.

One may read the inhibition as the share of the control response that was lost under treatment. Higher therefore signals a strong effect.

On to `OC1OC[C@@H](O)[C@H](O)[C@H]1O` (stereo partly shown) [xylose], for which the inhibition at 3 M was determined as 40%.
